What was measured:
Assay in all cases: activity assay
Type in all cases: biochemical
AspRedAm = target: T1, AspRedAm (Aspergillus oryzae, UniProt Q2TW47); conditions: 100 mM Tris-HCl pH 8.2, 5 mM hexanal, 10 mM amine, 1 mM cofactor, 30 °C
T1 construct: gene AO090010000708; details only in supplement
T1 sequence (Q2TW47 1-295): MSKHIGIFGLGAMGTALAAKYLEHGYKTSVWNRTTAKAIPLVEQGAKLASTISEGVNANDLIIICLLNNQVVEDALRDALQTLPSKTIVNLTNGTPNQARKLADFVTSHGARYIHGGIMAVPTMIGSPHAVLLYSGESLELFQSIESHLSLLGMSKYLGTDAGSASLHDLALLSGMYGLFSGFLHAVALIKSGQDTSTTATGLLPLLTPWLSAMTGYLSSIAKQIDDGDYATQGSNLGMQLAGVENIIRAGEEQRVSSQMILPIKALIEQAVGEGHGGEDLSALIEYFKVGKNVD

CHMO = target: T2, CHMO (Acinetobacter johnsonii, UniProt P12015)
T2 construct: gene chnB; details only in supplement
T2 sequence (P12015 whole entry): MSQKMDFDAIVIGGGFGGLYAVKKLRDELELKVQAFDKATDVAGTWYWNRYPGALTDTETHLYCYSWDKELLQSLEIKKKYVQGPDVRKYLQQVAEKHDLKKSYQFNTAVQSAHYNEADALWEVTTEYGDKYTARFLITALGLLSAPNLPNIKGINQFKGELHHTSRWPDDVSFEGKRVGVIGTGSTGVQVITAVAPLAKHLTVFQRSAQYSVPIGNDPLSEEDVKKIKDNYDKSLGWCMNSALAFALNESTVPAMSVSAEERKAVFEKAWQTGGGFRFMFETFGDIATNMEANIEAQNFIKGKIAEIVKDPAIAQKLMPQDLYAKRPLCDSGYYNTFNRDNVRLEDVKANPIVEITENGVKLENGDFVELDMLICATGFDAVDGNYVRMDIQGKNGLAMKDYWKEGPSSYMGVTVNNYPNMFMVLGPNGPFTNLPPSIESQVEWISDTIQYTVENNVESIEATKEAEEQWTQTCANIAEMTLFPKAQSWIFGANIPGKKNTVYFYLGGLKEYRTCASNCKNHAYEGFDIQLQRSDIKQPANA

TsER = target: T3, TsER (Thermus scotoductus, UniProt B0JDW3)
T3 construct: gene chrR; details only in supplement

NC(=O)C1=CN([C@@H]2C[C@H](COP(=O)(O)OP(=O)(O)OC[C@H]3O[C@@H](n4cnc5c(N)ncnc54)[C@H](OP(=O)(O)O)[C@@H]3O)[C@@H](O)[C@H]2O)C=CC1 [carba-NADPH]
activity assay (AspRedAm): Both gave comparable results with the natural and carba cofactor
activity assay (CHMO): two Baeyer‐Villiger‐monoxygenases (CHMO and HAPMO)
activity assay (TsER): enoate reductase (TsER from Thermus scotoductus)

— paper PMC8252718, “carba Nicotinamide Adenine Dinucleotide Phosphate: Robust Cofactor for Redox Biocatalysis” (Angewandte Chemie (International Ed. in English), 2021)
